Measured values as given in paper PMC12345137 (mBio, 2025).
Read-outs that look alike come from different tables or passages of the source.

Key:
S. epidermidis agr-III = S. epidermidis agr-III (Staphylococcus epidermidis, UniProt Q8VSX2); assay: cell-based; assay type: cell-based; conditions: fluorescent reporter strain; peptides tested at 1000, 50, 2.5, 0.125 nM or in dose-response
Procedure: (§1) Peptides were evaluated for the ability to interfere with agr-mediated quorum sensing in S. aureus (AH1677, AH430, AH1747, and AH1872 for agr-I–IV, respectively) ([40]) using reporter strains expressing yellow fluorescent protein (YFP) upon agr activation. Interference with agr-mediated quorum sensing in S. epidermidis (AH3408, AH3623, and AH3409 for agr-I–III, respectively) ([45]), and S. lugdunensis (AH4031 for agr-I) ([37]) was evaluated using reporter strains expressing superfolder green fluorescent protein (sGFP) upon agr activation. Overnight cultures of the reporter strains were grown in TSB medium containing chloramphenicol (CAM, 10 μg/mL for S. aureus) or erythromycin (ERM, 10 μg/mL of S. epidermidis and S. lugdunensis) and diluted 1:100 in fresh TSB medium containing the same antibiotic. Assays were performed in sterile black 96-well plates with a clear bottom. […] DMSO stock solutions of peptides (1 mM) were diluted in TSB media and added (15 μL) in technical triplicate to the 96-well plate, followed by diluted bacterial overnight cultures (135 μL). Control wells for 100% agr activity were wells replacing the peptide solution with TSB medium (15 μL). […] Wells containing 150 μL TSB medium were used to measure background fluorescence. The 96-well plates were incubated in a humidified incubator at 37°C shaking at 1,000 rpm for 22–24 h and fluorescence (for GFP: excitation 479 nm, emission 520 nm; for YFP: excitation 500 nm, emission 541 nm; automatic gain), and OD600 values were subsequently measured using a plate reader. Background fluorescence was subtracted from all wells and further normalized to the corresponding OD600 value of the respective wells. The average fluorescence of control wells was used as a relative measure for 100% activation of the agr-circuit, and bar graphs were generated using GraphPad Prism 10.4 software. All assays were performed in at least a biological duplicate.
(§2) Overnight cultures of the reporter strains were grown in TSB medium containing chloramphenicol (CAM, 10 μg/mL for S. aureus) or erythromycin (ERM, 10 μg/mL of S. epidermidis and S. lugdunensis) and diluted 1:100 in fresh TSB medium containing the same antibiotic. Assays were performed in sterile black 96-well plates with clear bottoms. Peptide solutions (15 μL) in 1:5 serial dilutions from DMSO stock solutions (1 mM) in TSB medium were added to the 96-well plate in technical duplicate followed by diluted bacterial overnight cultures (135 μL). Control wells for 100% agr activity were wells replacing the peptide solution with TSB medium (15 μL). Wells containing 150 μL TSB medium were used to measure background fluorescence. The 96-well plates were incubated in a humidified incubator at 37°C shaking at 1,000 rpm for 22–24 h and fluorescence (for GFP: excitation 479 nm, emission 520 nm; for YFP: excitation 500 nm, emission 541 nm; automatic gain), and OD600 values were subsequently measured using a plate reader. Background fluorescence was subtracted from all wells and further normalized to the corresponding OD600 value of the respective wells. The average fluorescence of control wells was used as a relative measure for 100% activation of the agr-circuit. Relative agr activity was plotted to obtain IC50 values by non-linear regression with variable slope using GraphPad Prism 10.4 software. All assays were performed in biological triplicate.

SA AgrC-II [1] = molecular target: T1, SA AgrC-II (Staphylococcus aureus, UniProt O33587); conditions: 100 nM cognate AIP, ± SEM, -b = no inhibition recorded at the highest AIP concentration tested, determined previously, ref (1), cited from earlier work
SA AgrC-IV [2] = molecular target: T2, SA AgrC-IV (Staphylococcus aureus, UniProt Q309Z2); conditions: 100 nM cognate AIP; ± SEM; -b = no inhibition recorded at the highest AIP concentration tested; determined previously; ref (1); cited from earlier work
SA AgrC-III [3] = molecular target: T3, SA AgrC-III (Staphylococcus aureus, UniProt O33590); conditions: 100 nM cognate AIP, ± SEM, -b = no inhibition recorded at the highest AIP concentration tested, determined previously, ref (1), cited from earlier work; for IC50: read-out: IC50, SA AgrC-III, b-lactamase assay
S. aureus (SA) agr-I = conditions: fluorescence, cited from earlier work
[4] = test system: S. epidermidis (SE) agr-I; conditions: fluorescence, cited from earlier work
[5] = test system: S. epidermidis (SE) agr-III; conditions: fluorescence, cited from earlier work; for IC50: ref (13)
[6] = test system: S. epidermidis (SE) agr-II; conditions: fluorescence, cited from earlier work
S. aureus (SA) agr-III = conditions: fluorescence, cited from earlier work
S. aureus (SA) agr-IV = conditions: fluorescence, cited from earlier work
S. aureus (SA) agr-II = conditions: fluorescence, cited from earlier work
SA AgrC-III [7] = molecular target: T3, SA AgrC-III; assay: β-Lactamase assay, reporter strain RN10829 (P2-agrA:P3-blaZ) with pagrC-III; assay type: cell-based; conditions: 100 nM cognate AIP; ± SEM; -b = no inhibition recorded at the highest AIP concentration tested; -a = only partial inhibition observed; this study (curves in Fig. S21)
From the text: (§3) The β-lactamase reporter strain RN10829 (P2-agrA:P3-blaZ) ([62]), with pagrC-I ([63]), pagrC-II, pagrC-III, or pagrC-IV ([11]), substituting the native agr locus with a chromosomal integration of P2-agrA and P3-blaZ and a plasmid from which a wild-type variant of the corresponding AgrC is expressed, was used to assess inhibition and activation of the AgrC receptor via β-lactamase activity in response to varying concentrations of the QS modulating peptides. Overnight cultures of the reporter strains in TSB medium were diluted 1:250 in fresh TSB medium and grown to OD600 = 0.35–0.40 (early exponential phase) at 37°C. Peptide solutions (10 μL) in 1:10 serial dilutions from DMSO stock solutions (1 mM) in TSB medium (final concentrations = 10 μM–10 pM) were added to each well of a clear 96-well plate as well as solutions (10 μL) of cognate AIP (final concentration = 100 nM) in TSB medium followed by 80 μL of bacterial cells. Control wells for 100% β-lactamase activity were wells replacing peptide solution with TSB media (10 μL), and control wells for 0% β-lactamase activity were wells replacing both peptide and cognate AIP solutions with TSB medium (20 μL). The 96-well plates were incubated at 37°C shaking at 200 rpm for 1 h and immediately frozen down at −80°C to minimize growth during nitrocefin treatment. Next, the 96-well plates were thawed, and OD600 values were determined using a plate reader followed by the addition of 50 μL of nitrocefin solution to the wells (final concentration = 33.3 μg/mL). β-Lactamase activity was monitored at OD486 every 20 s for 10 min at 37°C using a plate-reader. Linear nitrocefin conversion rates were plotted to obtain IC50 values by non-linear regression with variable slope using GraphPad Prism 10.4 software. Assays were performed at least as duplicate determinations in biological triplicate.

SA AgrC-II [8] = molecular target: T1, SA AgrC-II; assay: β-Lactamase assay, reporter strain RN10829 (P2-agrA:P3-blaZ) with pagrC-II; assay type: cell-based; conditions: 100 nM cognate AIP; ± SEM; -b = no inhibition recorded at the highest AIP concentration tested; -a = only partial inhibition observed; this study (curves in Fig. S20)
From the text: as §3

SA AgrC-IV [9] = molecular target: T2, SA AgrC-IV; assay: β-Lactamase assay, reporter strain RN10829 (P2-agrA:P3-blaZ) with pagrC-IV; assay type: cell-based; conditions: 100 nM cognate AIP; ± SEM; -b = no inhibition recorded at the highest AIP concentration tested; -a = only partial inhibition observed; this study (curves in Fig. S22)
From the text: as §3

S. lugdunensis agr-I = S. lugdunensis agr-I (Staphylococcus lugdunensis, UniProt Q8VSW5); assay: cell-based; conditions: fluorescent reporter strain; peptides tested at 1000, 50, 2.5, 0.125 nM or in dose-response
Procedure: as §1, §2

T2 sequence (Q309Z2 entry or part of it): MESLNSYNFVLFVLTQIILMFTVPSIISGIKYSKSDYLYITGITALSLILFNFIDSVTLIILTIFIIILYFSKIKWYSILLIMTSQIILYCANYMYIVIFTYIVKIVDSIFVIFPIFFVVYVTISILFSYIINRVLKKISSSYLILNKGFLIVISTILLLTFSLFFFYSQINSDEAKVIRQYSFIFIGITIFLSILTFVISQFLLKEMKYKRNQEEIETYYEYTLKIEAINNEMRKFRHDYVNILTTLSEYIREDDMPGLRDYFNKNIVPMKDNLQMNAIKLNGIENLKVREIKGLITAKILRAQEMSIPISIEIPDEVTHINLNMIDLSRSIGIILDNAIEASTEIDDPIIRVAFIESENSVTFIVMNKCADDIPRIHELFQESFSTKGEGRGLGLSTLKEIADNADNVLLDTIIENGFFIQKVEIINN
T3 sequence (O33590 entry or part of it): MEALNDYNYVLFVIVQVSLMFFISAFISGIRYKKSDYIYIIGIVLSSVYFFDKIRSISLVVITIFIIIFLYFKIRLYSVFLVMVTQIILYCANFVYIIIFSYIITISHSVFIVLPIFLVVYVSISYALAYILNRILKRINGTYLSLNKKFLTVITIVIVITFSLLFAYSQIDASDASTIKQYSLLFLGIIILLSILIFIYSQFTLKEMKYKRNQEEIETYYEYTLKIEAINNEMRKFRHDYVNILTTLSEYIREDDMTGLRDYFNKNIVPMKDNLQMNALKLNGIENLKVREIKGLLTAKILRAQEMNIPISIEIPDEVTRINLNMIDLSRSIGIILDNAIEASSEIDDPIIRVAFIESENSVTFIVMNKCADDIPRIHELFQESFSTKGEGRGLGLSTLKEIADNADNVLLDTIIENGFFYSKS
T1 sequence (O33587 entry or part of it): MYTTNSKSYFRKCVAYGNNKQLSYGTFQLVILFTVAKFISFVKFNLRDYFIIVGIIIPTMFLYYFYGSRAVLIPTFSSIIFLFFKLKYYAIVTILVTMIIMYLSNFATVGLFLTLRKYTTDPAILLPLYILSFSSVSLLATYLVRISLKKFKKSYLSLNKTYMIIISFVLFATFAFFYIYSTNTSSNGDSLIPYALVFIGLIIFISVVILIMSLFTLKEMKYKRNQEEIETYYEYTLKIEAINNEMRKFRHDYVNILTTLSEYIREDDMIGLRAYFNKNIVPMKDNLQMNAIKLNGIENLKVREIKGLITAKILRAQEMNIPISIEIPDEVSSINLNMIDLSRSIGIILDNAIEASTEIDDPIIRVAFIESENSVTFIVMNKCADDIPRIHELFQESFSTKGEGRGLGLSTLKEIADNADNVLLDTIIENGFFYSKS
Sequence of S. epidermidis agr-III (Q8VSX2 entry or part of it): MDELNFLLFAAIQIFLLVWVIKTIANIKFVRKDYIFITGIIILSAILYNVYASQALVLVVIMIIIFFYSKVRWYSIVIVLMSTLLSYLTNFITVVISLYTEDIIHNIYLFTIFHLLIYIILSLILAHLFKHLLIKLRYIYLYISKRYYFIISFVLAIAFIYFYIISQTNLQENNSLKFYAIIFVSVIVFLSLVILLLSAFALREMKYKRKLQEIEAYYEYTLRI
Sequence of S. lugdunensis agr-I (Q8VSW5 entry or part of it): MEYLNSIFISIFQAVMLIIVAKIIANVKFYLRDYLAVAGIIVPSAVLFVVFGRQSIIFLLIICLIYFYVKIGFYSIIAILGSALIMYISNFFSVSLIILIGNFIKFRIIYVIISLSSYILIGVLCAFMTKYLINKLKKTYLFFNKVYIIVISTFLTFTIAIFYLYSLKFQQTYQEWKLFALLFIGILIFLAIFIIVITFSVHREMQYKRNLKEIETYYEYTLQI

Question: With S. simulans AIP-III W6A [compound 48] as the substance, how does the “QS interaction in words (inhibition / activation), S. epidermidis agr-III” value (S. epidermidis agr-III) read?
Answer: Its value is “no effect on S. epidermidis agr-III activation”.

Question: Which results are given for S. vitulinus AIP-I [compound 35]?
Answer: IC50 (SA AgrC-II [1]; read-out: IC50, SA AgrC-II, b-lactamase assay): 800 ± 116 nM; IC50, SA AgrC-IV, b-lactamase assay (SA AgrC-IV [2]): -b; IC50 (SA AgrC-III [3]): 690 ± 46 nM

Question: For S. hominis AIP-II [compound 11], which IC50 (S. aureus (SA) agr-I; ref (13)) is on record?
Answer: The IC50 was 15 nM.

Question: What about the IC50 ([4]; ref (13)) of the same substance?
Answer: Its IC50 is 20 nM.

Question: And the IC50 [5]?
Answer: The IC50 was 62 nM.

Question: What about the IC50 ([6]; ref (13)) of the same substance?
Answer: Its IC50 is 19 nM.

Question: What about the IC50 (S. aureus (SA) agr-III; ref (13)) of the same substance?
Answer: The IC50 was 3 nM.

Question: And the IC50 (S. aureus (SA) agr-IV; ref (13))?
Answer: The IC50 was 1130 nM.

Question: What about the IC50 (S. aureus (SA) agr-II; ref (13)) of the same substance?
Answer: Its IC50 is 2110 nM.

Question: What does the source list for S. hominis AIP-IV [compound 13]?
Answer: IC50 (S. aureus (SA) agr-I; ref (13)): 128 nM; IC50 ([4]; ref (13)): 237 nM; IC50 [5]: 28 nM; IC50 ([6]; ref (13)): 93 nM; IC50 (S. aureus (SA) agr-III; ref (13)): 37 nM; IC50 (S. aureus (SA) agr-II; ref (13)): 140 nM

Question: With S. epidermidis AIP-II [compound 6] as the substance, how does the “inhibition at 100 nM, SA agr-I” value (S. aureus (SA) agr-I; at 100 nM, ref (11)) read?
Answer: The value was “no inhibition”.

Question: And the “effect from supernatant (% inhibition, activation or no effect), SE agr-I” value ([4]; from supernatant, ref (18))?
Answer: Its value is ~ 90%.

Question: And the IC50 ([4]; ref (11))?
Answer: The IC50 was 9.64 nM.

Question: And the “effect at 10 µM, SE agr-III” value ([5]; at 10 µM, ref (11))?
Answer: The value was “no effect”.

Question: And the “effect from supernatant (% inhibition, activation or no effect), SE agr-III” value ([5]; from supernatant, ref (18))?
Answer: Its value is “no effect”.

Question: And the “effect at 10 µM, SE agr-II” value ([6]; at 10 µM, ref (11))?
Answer: The value was “activation”.

Question: What about the “effect from supernatant (% inhibition, activation or no effect), SE agr-II” value ([6]; from supernatant, ref (18)) of the same substance?
Answer: Its value is “activation”.

Question: And the “IC50, SA AgrC-III, b-lactamase assay” value (SA AgrC-III [7])?
Answer: Its value is “-b”.

Question: What about the “inhibition at 100 nM, SA agr-III” value (S. aureus (SA) agr-III; at 100 nM, ref (11)) of the same substance?
Answer: The value was “no inhibition”.

Question: What about the “IC50, SA AgrC-II, b-lactamase assay” value (SA AgrC-II [8]) of the same substance?
Answer: Its value is “-b”.

Question: And the “IC50, SA AgrC-IV, b-lactamase assay” value (SA AgrC-IV [9])?
Answer: The value was “-b”.

Question: And the “inhibition at 100 nM, SA agr-IV” value (S. aureus (SA) agr-IV; at 100 nM, ref (11))?
Answer: The value was “no inhibition”.

Question: And the “inhibition at 100 nM, SA agr-II” value (S. aureus (SA) agr-II; at 100 nM, ref (11))?
Answer: Its value is “no inhibition”.

Question: With S. simulans AIP-III K1A [compound 45] as the substance, how does the “QS interaction in words (inhibition / activation), S. epidermidis agr-III” value (S. epidermidis agr-III) read?
Answer: The value was “lost the ability to activate”.

Question: Which “IC50, SA AgrC-II, b-lactamase assay” value (SA AgrC-II [1]) does the source give for S. haemolyticus AIP-I [compound 15] here?
Answer: The value was “-b”.

Question: What about the IC50 (SA AgrC-III [3]) of the same substance?
Answer: The IC50 was 340 ± 91 nM.

Question: With S. lugdunensis AIP-II [compound 9] as the substance, how does the “IC50, SA AgrC-II, b-lactamase assay” value (SA AgrC-II [1]) read?
Answer: The value was “-b”.

Question: What about the “IC50, SA AgrC-IV, b-lactamase assay” value (SA AgrC-IV [2]) of the same substance?
Answer: The value was “-b”.

Question: What about the “IC50, SA AgrC-III, b-lactamase assay” value (SA AgrC-III [3]) of the same substance?
Answer: The value was “-b”.

Question: Which “QS interaction in words (inhibition / activation), S. lugdunensis agr-I” value (S. lugdunensis agr-I) does the source give for “S. Simulans AIP-II/III N-Me2 [compound 56]” here?
Answer: The value was “remained highly potent”.

Question: Which IC50 (S. aureus (SA) agr-I; ref (14)) does the source give for S. warneri AIP-II [compound 17] here?
Answer: Its IC50 is 2 nM.

Question: What about the IC50 ([4]; ref (14)) of the same substance?
Answer: The IC50 was 12 nM.

Question: And the IC50 ([6]; ref (14))?
Answer: Its IC50 is 4 nM.

Question: And the IC50 (S. aureus (SA) agr-III; ref (14))?
Answer: The IC50 was 2 nM.

Question: What about the IC50 (S. aureus (SA) agr-IV; ref (14)) of the same substance?
Answer: The IC50 was 2 nM.

Question: And the IC50 (S. aureus (SA) agr-II; ref (14))?
Answer: The IC50 was 30 nM.
